Data on 1 molecule can be found in patent US20090186110A1, “GUAVA EXTRACT” (priority 2005, published 2009).

The target in this experiment is T1, DP-IV (Homo sapiens, UniProt P27487).
T1 construct: DP-IV also exists as a soluble circulating form in plasma; from tissue; host or cells: human plasma
Description: DP-IV activity colorimetric assay (Gly-Pro-4-NA substrate, human plasma). The format is biochemical. The procedure: DP-IV activity was measured by a colorimetric assay.
DP-IV activity is expressed as the linear change in optical density over 20 min (Δ Abs/min).

T1 sequence (P27487 39-766 limits assumed): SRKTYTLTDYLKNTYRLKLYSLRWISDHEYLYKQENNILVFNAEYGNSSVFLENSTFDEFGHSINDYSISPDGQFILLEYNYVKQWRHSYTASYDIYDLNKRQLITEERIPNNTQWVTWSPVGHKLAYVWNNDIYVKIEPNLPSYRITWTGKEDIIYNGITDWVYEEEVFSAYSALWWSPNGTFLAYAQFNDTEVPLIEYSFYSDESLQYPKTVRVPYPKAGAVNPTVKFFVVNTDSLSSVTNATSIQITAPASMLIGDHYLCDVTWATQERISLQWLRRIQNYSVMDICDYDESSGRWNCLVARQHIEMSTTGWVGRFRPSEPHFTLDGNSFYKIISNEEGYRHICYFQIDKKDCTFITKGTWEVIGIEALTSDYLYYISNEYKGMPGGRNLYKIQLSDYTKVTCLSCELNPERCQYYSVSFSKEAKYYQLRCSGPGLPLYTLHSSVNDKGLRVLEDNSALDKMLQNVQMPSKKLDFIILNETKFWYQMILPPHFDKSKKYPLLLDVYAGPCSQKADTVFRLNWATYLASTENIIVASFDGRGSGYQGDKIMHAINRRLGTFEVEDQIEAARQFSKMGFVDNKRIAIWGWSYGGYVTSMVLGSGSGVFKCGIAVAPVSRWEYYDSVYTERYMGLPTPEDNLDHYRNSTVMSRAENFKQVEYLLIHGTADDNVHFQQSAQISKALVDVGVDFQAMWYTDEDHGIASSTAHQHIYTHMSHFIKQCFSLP

For the molecule `O=c1c(O[C@@H]2OC[C@H](O)[C@H](O)[C@H]2O)c(-c2ccc(O)c(O)c2)oc2cc(O)cc(O)c12` [guaijaverin], the “DP-IV inhibition (result in words)” value is on record as “clear, dose dependent inhibition of DP-IV”. In addition, the “concentration that yielded a DP-IV inhibition of around 50%” value (guaijaverin in HEPES buffer, tested 70-280 μg/mL) was 140-210 μg/mL test assay.
